Assay results taken from PubChem BioAssay AID342 (DTP/NCI, 2004).
Where “and” joins values, the source holds several entries; their conditions need not be identical. Identical values can stand only once.

Test system: Swiss mice, Sarcoma 180 sc, mean tumor weight T/C
Test: NCI In Vivo Anticancer Drug Screen. Data for tumor model Sarcoma 180 (subcutaneous) in Swiss mice
Conditions: endpoint: mean tumor weight, higher = larger tumour
Outline: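 Transplantable tumors were established in mice, compound was given, then survival or tumor size was recorded. The treated value was divided by the vehicle-control value.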

[1] = dose: 62.5 mg/kg/injection, schedule: Q#A X014 (ip), vehicle: carboxymethylcellulose (CMC)
[2] = dose: 125.0 mg/kg/injection, schedule: Q#A X014 (ip), vehicle: carboxymethylcellulose (CMC)

CCSc1nc(Cl)cc(Sc2nc(N)nc3nc[nH]c23)n1
T/C (dose: 9.0 mg/kg/injection, schedule: Q01DX007 (ip), vehicle: other): 75 % of control | T/C (dose: 18.0 mg/kg/injection, schedule: Q01DX007 (ip), vehicle: methylcellulose (MC)): 91 % of control | T/C (dose: 18.0 mg/kg/injection, schedule: Q01DX007 (ip), vehicle: other): 116 % of control | T/C (dose: 36.0 mg/kg/injection, schedule: Q01DX007 (ip), vehicle: methylcellulose (MC)): 95 % of control | T/C (dose: 72.0 mg/kg/injection, schedule: Q01DX007 (ip), vehicle: methylcellulose (MC)): 76 % of control | T/C (dose: 72.0 mg/kg/injection, schedule: Q01DX007 (ip), vehicle: other): 32 % of control | T/C (dose: 124.0 mg/kg/injection, schedule: Q01DX007 (ip), vehicle: carboxymethylcellulose (CMC)): 73 % of control | T/C (dose: 144.0 mg/kg/injection, schedule: Q01DX007 (ip), vehicle: methylcellulose (MC)): 44 % of control and 57 % of control | T/C (dose: 188.0 mg/kg/injection, schedule: Q01DX007 (ip), vehicle: carboxymethylcellulose (CMC)): 44 % of control | T/C (dose: 277.0 mg/kg/injection, schedule: Q01DX007 (ip), vehicle: carboxymethylcellulose (CMC)): 47 % of control | T/C (dose: 281.0 mg/kg/injection, schedule: Q01DX007 (ip), vehicle: carboxymethylcellulose (CMC)): 76 % of control | T/C (dose: 288.0 mg/kg/injection, schedule: Q01DX007 (ip), vehicle: methylcellulose (MC)): 52 % of control and 61 % of control | T/C (dose: 422.0 mg/kg/injection, schedule: Q01DX007 (ip), vehicle: carboxymethylcellulose (CMC)): 35 % of control and 40 % of control | T/C (dose: 435.0 mg/kg/injection, schedule: Q01DX007 (ip), vehicle: methylcellulose (MC)): 100 % of control | T/C (dose: 630.0 mg/kg/injection, schedule: Q01DX007 (ip), vehicle: carboxymethylcellulose (CMC)): 37 % of control | T/C (dose: 945.0 mg/kg/injection, schedule: Q01DX007 (ip), vehicle: carboxymethylcellulose (CMC)): 47 % of control

O=NN1CCN(N=O)CC1
T/C (dose: 5.06 mg/kg/injection, schedule: Q#A X014 (ip), vehicle: carboxymethylcellulose (CMC)): 100 % of control | T/C (dose: 20.25 mg/kg/injection, schedule: Q#A X014 (ip), vehicle: carboxymethylcellulose (CMC)): 101 % of control | T/C (dose: 40.5 mg/kg/injection, schedule: Q#A X014 (ip), vehicle: carboxymethylcellulose (CMC)): 88 % of control

NNC(=O)NC(=O)NN
T/C (dose: 9.5 mg/kg/injection, schedule: Q01DX007 (ip), vehicle: carboxymethylcellulose (CMC)): 91 % of control | T/C (dose: 19.0 mg/kg/injection, schedule: Q01DX007 (ip), vehicle: carboxymethylcellulose (CMC)): 124 % of control | T/C (dose: 38.0 mg/kg/injection, schedule: Q01DX007 (ip), vehicle: carboxymethylcellulose (CMC)): 111 % of control | T/C (dose: 76.0 mg/kg/injection, schedule: Q01DX007 (ip), vehicle: carboxymethylcellulose (CMC)): 69 % of control

[N-]=[N+]=CC(=O)CCC(N)C(=O)O (configuration not stated)
T/C (dose: 12.5 mg/kg/injection, schedule: Q#A X014 (ip), vehicle: saline): 45 % of control and 59 % of control | T/C (dose: 25.0 mg/kg/injection, schedule: Q#A X014 (ip), vehicle: saline): 6 % of control and 17 % of control | T/C (dose: 25.0 micrograms/kg/injection, schedule: Q01DX007 (ip), vehicle: carboxymethylcellulose (CMC)): 70 % of control | T/C (dose: 50.0 micrograms/kg/injection, schedule: Q01DX007 (ip), vehicle: carboxymethylcellulose (CMC)): 51 % of control | T/C (dose: 100.0 micrograms/kg/injection, schedule: Q01DX007 (ip), vehicle: carboxymethylcellulose (CMC)): 8 % of control

O=S(=O)(O)C(Nc1ccccc1)c1ccccc1 (configuration not stated)
T/C (dose: 24.0 mg/kg/injection, schedule: Q01DX007 (ip), vehicle: carboxymethylcellulose (CMC)): 80 % of control | T/C (dose: 36.0 mg/kg/injection, schedule: Q01DX007 (ip), vehicle: carboxymethylcellulose (CMC)): 94 % of control | T/C (dose: 54.0 mg/kg/injection, schedule: Q01DX007 (ip), vehicle: carboxymethylcellulose (CMC)): 92 % of control | T/C (dose: 81.0 mg/kg/injection, schedule: Q01DX007 (ip), vehicle: carboxymethylcellulose (CMC)): 93 % of control | T/C (dose: 162.0 mg/kg/injection, schedule: Q01DX007 (ip), vehicle: carboxymethylcellulose (CMC)): 113 % of control | T/C (dose: 324.0 mg/kg/injection, schedule: Q01DX007 (ip), vehicle: carboxymethylcellulose (CMC)): 84 % of control

O=CC1CO1 (configuration not stated)
T/C (dose: 50.0 mg/kg/injection, schedule: Q01DX007 (ip), vehicle: carboxymethylcellulose (CMC)): 123 % of control

Nc1ncnc2c1ccn2C1OC(CO)C(O)C1O (configuration not stated)
T/C (dose: 0.62 mg/kg/injection, schedule: Q#A X014 (ip), vehicle: carboxymethylcellulose (CMC)): 90 % of control

Cn1c(=O)c2[nH]cnc2n(C)c1=O
T/C (dose: 20.43 mg/kg/injection, schedule: Q01DX007 (ip), vehicle: carboxymethylcellulose (CMC)): 75 % of control | T/C (dose: 40.87 mg/kg/injection, schedule: Q01DX007 (ip), vehicle: carboxymethylcellulose (CMC)): 103 % of control | T/C (dose: 81.75 mg/kg/injection, schedule: Q01DX007 (ip), vehicle: carboxymethylcellulose (CMC)): 70 % of control | T/C (dose: 163.5 mg/kg/injection, schedule: Q01DX007 (ip), vehicle: carboxymethylcellulose (CMC)): 113 % of control

NC(=O)c1[nH]cnc1/N=N/N1CCCC1
T/C [1]: 73 % of control | T/C [2]: 107 % of control

NC(=O)c1[nH]cnc1/N=N/N(Cc1ccccc1)Cc1ccccc1
T/C (dose: 15.5 mg/kg/injection, schedule: Q#A X014 (ip), vehicle: carboxymethylcellulose (CMC)): 49 % of control | T/C (dose: 31.0 mg/kg/injection, schedule: Q#A X014 (ip), vehicle: carboxymethylcellulose (CMC)): 59 % of control | T/C [1]: 61 % of control

C1CN1c1nc(N2CC2)nc(N2CC2)n1
T/C (dose: 85.0 micrograms/kg/injection, schedule: Q01DX007 (ip), vehicle: carboxymethylcellulose (CMC)): 111 % of control | T/C (dose: 170.0 micrograms/kg/injection, schedule: Q01DX007 (ip), vehicle: carboxymethylcellulose (CMC)): 95 % of control | T/C (dose: 340.0 micrograms/kg/injection, schedule: Q01DX007 (ip), vehicle: carboxymethylcellulose (CMC)): 119 % of control | T/C (dose: 680.0 micrograms/kg/injection, schedule: Q01DX007 (ip), vehicle: carboxymethylcellulose (CMC)): 124 % of control

Nc1nc(=S)c2ncn(C3CCCO3)c2[nH]1 (configuration not stated)
T/C (dose: 20.0 mg/kg/injection, schedule: Q01DX007 (ip), vehicle: carboxymethylcellulose (CMC)): 43 % of control and 46 % of control | T/C (dose: 45.0 mg/kg/injection, schedule: Q01DX007 (ip), vehicle: carboxymethylcellulose (CMC)): 18 % of control and 38 % of control | T/C (dose: 90.0 mg/kg/injection, schedule: Q01DX007 (ip), vehicle: carboxymethylcellulose (CMC)): 9 % of control

N#[N+]c1n[nH]nc1C(N)=O
T/C (dose: 12.5 mg/kg/injection, schedule: Q01DX007 (ip), vehicle: carboxymethylcellulose (CMC)): 114 % of control | T/C (dose: 25.0 mg/kg/injection, schedule: Q01DX007 (ip), vehicle: carboxymethylcellulose (CMC)): 74 % of control

O=P(N1CCCCCC1)(N1CC1)N1CC1
T/C (dose: 1.0 mg/kg/injection, schedule: Q#A X014 (ip), vehicle: methylcellulose (MC)): 91 % of control | T/C (dose: 1.0 mg/kg/injection, schedule: Q#A X014 (ip), vehicle: saline): 120 % of control | T/C (dose: 1.5 mg/kg/injection, schedule: Q#A X014 (ip), vehicle: methylcellulose (MC)): 86 % of control | T/C (dose: 1.5 mg/kg/injection, schedule: Q#A X014 (ip), vehicle: saline): 103 % of control | T/C (dose: 2.0 mg/kg/injection, schedule: Q#A X014 (ip), vehicle: methylcellulose (MC)): 65 % of control | T/C (dose: 2.0 mg/kg/injection, schedule: Q#A X014 (ip), vehicle: saline): 88 % of control | T/C (dose: 3.0 mg/kg/injection, schedule: Q#A X014 (ip), vehicle: methylcellulose (MC)): 61 % of control | T/C (dose: 3.0 mg/kg/injection, schedule: Q#A X014 (ip), vehicle: saline): 70 % of control

CC(N)C(=O)NC1(C(=O)O)CCCC1 (configuration not stated)
T/C (dose: 7.5 mg/kg/injection, schedule: Q#A X014 (ip), vehicle: carboxymethylcellulose (CMC)): 75 % of control | T/C (dose: 15.0 mg/kg/injection, schedule: Q#A X014 (ip), vehicle: carboxymethylcellulose (CMC)): 56 % of control | T/C (dose: 30.0 mg/kg/injection, schedule: Q#A X014 (ip), vehicle: carboxymethylcellulose (CMC)): 62 % of control | T/C (dose: 60.0 mg/kg/injection, schedule: Q#A X014 (ip), vehicle: carboxymethylcellulose (CMC)): 46 % of control

O=S(=O)(O)c1cccnc1
T/C (dose: 17.47 mg/kg/injection, schedule: Q#A X014 (ip), vehicle: carboxymethylcellulose (CMC)): 70 % of control | T/C (dose: 31.25 mg/kg/injection, schedule: Q#A X014 (ip), vehicle: carboxymethylcellulose (CMC)): 64 % of control | T/C (dose: 34.94 mg/kg/injection, schedule: Q#A X014 (ip), vehicle: carboxymethylcellulose (CMC)): 80 % of control | T/C [1]: 105 % of control | T/C (dose: 69.87 mg/kg/injection, schedule: Q#A X014 (ip), vehicle: carboxymethylcellulose (CMC)): 89 % of control | T/C [2]: 63 % of control | T/C (dose: 139.75 mg/kg/injection, schedule: Q#A X014 (ip), vehicle: carboxymethylcellulose (CMC)): 97 % of control | T/C (dose: 250.0 mg/kg/injection, schedule: Q#A X014 (ip), vehicle: carboxymethylcellulose (CMC)): 124 % of control

C#C[C@]1(O)CC[C@H]2[C@@H]3CCc4cc(O)ccc4[C@H]3CC[C@@]21C
T/C (dose: 125.0 mg/kg/injection, schedule: Q#A X014 (sc), vehicle: steriod suspending solution): 30 % of control and 48 % of control and 50 % of control | T/C (dose: 187.5 mg/kg/injection, schedule: Q#A X014 (sc), vehicle: steriod suspending solution): 39 % of control and 50 % of control and 51 % of control | T/C (dose: 281.25 mg/kg/injection, schedule: Q#A X014 (sc), vehicle: steriod suspending solution): 62 % of control and 76 % of control
